Data taken from ChEMBL document CHEMBL3102783, “Structural studies, homology modeling and molecular docking of novel non-competitive antagonists of GluK1/GluK2 receptors” (Bioorg Med Chem, 2014).

How the values were obtained:
[1] = biological target: T1, Glutamate receptor ionotropic, kainate 2 (Homo sapiens, UniProt Q13002); experiment: Displacement of [3H]-kainate from GluK2 receptor (unknown origin)
[2] = biological target: T2, Glutamate receptor ionotropic, kainate 1 (Homo sapiens, UniProt P39086); experiment: Displacement of [3H]-kainate from GluK1 receptor (unknown origin)
[3] = biological target: T2, Glutamate receptor ionotropic, kainate 1; experiment: Displacement of [3H]-kainate from GluK1 receptor (unknown origin) at 100 uM
[4] = biological target: T1, Glutamate receptor ionotropic, kainate 2; experiment: Displacement of [3H]-kainate from GluK2 receptor (unknown origin) at 100 uM

T1 sequence (Q13002 whole entry): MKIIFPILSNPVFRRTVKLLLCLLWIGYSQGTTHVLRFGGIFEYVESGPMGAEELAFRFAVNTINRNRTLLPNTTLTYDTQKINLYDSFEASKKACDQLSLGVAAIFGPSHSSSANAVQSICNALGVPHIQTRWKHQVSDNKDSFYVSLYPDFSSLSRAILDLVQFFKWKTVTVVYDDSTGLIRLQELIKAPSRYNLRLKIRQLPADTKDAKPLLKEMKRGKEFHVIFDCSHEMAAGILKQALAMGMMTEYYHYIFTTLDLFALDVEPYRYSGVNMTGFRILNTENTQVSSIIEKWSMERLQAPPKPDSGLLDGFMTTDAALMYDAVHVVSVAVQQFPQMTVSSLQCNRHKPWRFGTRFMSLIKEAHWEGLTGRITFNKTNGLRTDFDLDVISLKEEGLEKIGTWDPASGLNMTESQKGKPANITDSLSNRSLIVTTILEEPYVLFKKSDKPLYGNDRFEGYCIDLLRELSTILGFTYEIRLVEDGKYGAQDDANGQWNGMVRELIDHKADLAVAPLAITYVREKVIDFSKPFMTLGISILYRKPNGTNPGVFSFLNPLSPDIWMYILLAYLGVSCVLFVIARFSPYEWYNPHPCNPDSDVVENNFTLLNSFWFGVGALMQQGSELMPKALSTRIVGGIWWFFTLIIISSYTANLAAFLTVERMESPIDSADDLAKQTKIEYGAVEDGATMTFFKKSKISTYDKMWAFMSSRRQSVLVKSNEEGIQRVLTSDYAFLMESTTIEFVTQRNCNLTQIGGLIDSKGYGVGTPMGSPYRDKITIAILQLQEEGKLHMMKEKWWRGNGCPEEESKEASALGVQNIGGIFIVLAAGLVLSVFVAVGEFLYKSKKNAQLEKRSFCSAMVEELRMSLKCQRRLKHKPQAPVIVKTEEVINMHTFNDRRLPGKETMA
T2 sequence (P39086 whole entry): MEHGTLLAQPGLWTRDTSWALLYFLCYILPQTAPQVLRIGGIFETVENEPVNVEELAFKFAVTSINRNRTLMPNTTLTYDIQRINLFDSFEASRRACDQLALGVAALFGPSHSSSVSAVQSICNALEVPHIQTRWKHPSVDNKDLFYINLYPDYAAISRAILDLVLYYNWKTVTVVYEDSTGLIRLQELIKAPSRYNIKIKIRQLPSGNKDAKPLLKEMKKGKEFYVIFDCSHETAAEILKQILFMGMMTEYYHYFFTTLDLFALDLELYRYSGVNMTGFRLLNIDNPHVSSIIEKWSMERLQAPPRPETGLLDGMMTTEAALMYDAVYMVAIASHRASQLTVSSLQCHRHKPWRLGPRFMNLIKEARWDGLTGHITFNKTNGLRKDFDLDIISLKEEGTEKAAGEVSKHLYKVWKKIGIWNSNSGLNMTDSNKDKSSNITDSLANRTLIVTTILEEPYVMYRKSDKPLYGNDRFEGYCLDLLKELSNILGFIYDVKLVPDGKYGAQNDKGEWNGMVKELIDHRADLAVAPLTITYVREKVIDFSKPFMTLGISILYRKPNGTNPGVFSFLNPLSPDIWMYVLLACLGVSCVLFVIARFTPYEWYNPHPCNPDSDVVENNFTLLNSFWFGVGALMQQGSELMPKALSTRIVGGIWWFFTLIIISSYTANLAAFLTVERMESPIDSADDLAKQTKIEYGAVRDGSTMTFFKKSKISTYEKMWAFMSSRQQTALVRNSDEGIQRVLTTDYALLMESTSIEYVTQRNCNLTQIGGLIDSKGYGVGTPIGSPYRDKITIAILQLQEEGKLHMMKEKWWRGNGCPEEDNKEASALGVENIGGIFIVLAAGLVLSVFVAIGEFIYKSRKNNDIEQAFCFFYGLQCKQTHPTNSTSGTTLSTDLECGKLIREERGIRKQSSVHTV

SMILES | IC50 [1] | IC50 [2] | inhibition [3] | inhibition [4]
CCn1c(-c2ccccc2)cc2cc(OC)ccc21 | 6.7 µM | 12 µM | – | –
CCn1c(-c2ccc(OC)cc2)c(C)c2cc(OC)ccc21 | 0.7 µM | 4 µM | – | –
CCn1c(-c2ccc(OC)cc2)c(C)c2ccccc21 | 10 µM | – | 32% | –
COc1ccc(-c2c(C)c3cc(OC)ccc3n2Cc2ccc(Cl)cc2)cc1 | – | – | 0% | 20%

More lines, now with the values ahead:

IC50 [1] | IC50 [2] | inhibition [3] | inhibition [4] | SMILES
6 µM | – | 32% | – | CCn1c(-c2ccccc2)c(C)c2cc(OC)ccc21
– | – | 0% | 1% | CCn1c2c(c3cc(OC)ccc31)CCc1ccccc1-2
